Reference: paper PMC7355663, “Microscale Thermophoresis as a Screening Tool to Predict Melanin Binding of Drugs” (Pharmaceutics, 2020)

Tests used:
[1] = Traditional melanin binding assay (equilibrium binding, Sips isotherm)
Description: (§1) The traditional melanin binding assay was conducted with melanin from the porcine RPE-choroid. We used previously published methods for melanin isolation and drug binding. Fresh melanin suspension and test compound solutions were prepared before each experiment. The melanin suspension (in PBS, pH 7.4) was sonicated in a bath sonicator for 30 min (Elmasonic S 40 H, Elma Schmidbauer GmbH, Singen, Germany) before the experiment. The incubation with test compounds took place at 37 °C on a shaker (220 rpm), and the melanin concentration in the assay was 1 mg/mL (0.15 mg/well). In the control samples, PBS buffer (pH 7.4) was used instead of the melanin suspension. Three individual replicates were made for each experiment. After 20 h incubation, the samples were centrifuged at 20,000× g for 20 min, and supernatant containing the unbound ligand was collected for analysis.
(§2) Samples having an estimated concentration of 0.5 µM or higher were analyzed with ultra-high pressure liquid chromatography (UPLC) (Acquity UPLC, Waters, Milford, MA, USA) with UV detection (Photodiode Array Detector, Waters, MA, USA). The separation was carried out on a Luna Omega Polar C18 (1.6 μm, 2.1 × 50 mm^2) column (Phenomenex) at 30 °C. Injection volume was 4 µL. Gradient mode was used for all the compounds with an acetonitrile/15 mM phosphate buffer (pH 2) mobile phase. Gradient duration was 3−5 min depending on the sample (levofloxacin, terazosin, and papaverine).
(§3) All internal standards, namely levofloxacin D8, terazosin D8, and papaverine D3, were purchased from Toronto Research Chemicals (Toronto, ON, Canada). […] Injection volumes were 0.2 μL for terazosin, 0.3 µL for levofloxacin, and 0.15 µl for papaverine with a flow through needle injection system. The mobile phase consisted of 0.1% formic acid (Merck, Darmstadt, Germany) in ultrapure water (A) and 100% LC–MS grade acetonitrile (Honeywell, Seelze, Germany) (B). […] The gradient for levofloxacin was the same as for papaverine, but the total run time was 6 min. The flow rate was 0.3 mL/min for all the compounds.
(§4) Mass spectrometric measurements were carried out using a Waters Xevo TQ-S triple quadruple mass spectrometer coupled with an electrospray ionization (ESI) on a positive mode for all three compounds. Optimized MS-parameters were as follows: capillary 1.5 kV (terazosin and papaverine), 3.5 kV (levofloxacin), cone voltage 80 V (terazosin) and 8 V (terazosin D8), 22 V (papaverine and papaverine D3), 28 V (levofloxacin and levofloxacin D8), source temperature 150 °C, and desolvation temperature 500 °C (terazosin) or 450 °C (papaverine and levofloxacin). Nitrogen (AGA, Helsinki, Finland) was used as the desolvation gas (1000 L·h^−1 terazosin, 800 L·h^−1 papaverine and levofloxacin) and the cone gas (150 L·h^−1), argon (AGA, Helsinki, Finland) as the collision gas. Multiple reaction monitoring (MRM) mode was employed for quantification. […] The resulting data were analyzed with Waters MassLynx V4.1 software. To consider the effect of melanin on the analyses, separate samples containing only melanin in PBS (with no test compound) were also studied.
(§5) The binding parameters were determined with Sips isotherm (Equation (2)) as described by Manzanares et al.. B = (Bmax × [L]^n)/(Kd^n + [L]^n)(2) where B is the amount of bound drug (nmol·mg^−^1); Bmax is the maximum binding capacity (nmol·mg^−^1); [L] is the free drug concentration (µM); n is the heterogeneity index (assuming heterogeneity of the surface of the melanin particles); and Kd represents the dissociation constant (µM).

[2] = test system: melanin; assay: in vitro; details: pig, pH 7.4
Description: as §1, §2, §3, §4, §5

[3] = Label-free microscale thermophoresis (MST) melanin binding assay
Description: Synthetic melanin was purchased from Sigma Aldrich (#M8631-100 mg). Melanin nanoparticles were prepared as described earlier by Fan et al., and low-binding pipette tips (Maxymum RecoveryTM pipet tips, Corning Incorporated, Salt Lake City, UT, USA) and tubes (No stick microtubes, Alpha Laboratories, Hampshire, UK) were used with both melanin and melanin nanoparticles. Briefly, melanin was dissolved into 1 N NaOH with a concentration of 2 mg/mL and stirred by vortexing. The solution was neutralized by adding an equal volume of 1 N HCl. […] After the final centrifugation, the resulting nanoparticles were suspended into a small volume of sterile water and freeze-dried for 48–72 h (ModulyoD-230, Thermo Savant, Holbrook, NY, USA), and stored at −20 °C until the binding assays.
Melanin binding of each of the 13 model compounds was determined (for the concentrations in the assay, see Table 1). The dilution series of drugs were prepared onto a PCR plate (4titude PCR Plate, Skirted, #4ti-0740, Brooks Life Sciences, Chelmsford, MA, USA) in phosphate buffered saline (PBS, pH 7.4). […] The compound dilutions (10 µL) were transferred into 0.2 mL PCR tube strips (#TBS0201, Bio-Rad Laboratories, Inc., Hercules, CA, USA), and an equal volume of 1 mg/mL melanin nanoparticle dilution was added, resulting in a final melanin concentration of 0.5 mg/mL. At least three biological replicates (individually incubated dilution series) were prepared for each compound (n = 3–5). A reference sample containing only melanin nanoparticles and PBS (pH 7.4) was included in each assay to determine the unbound state in the thermophoresis experiment. Melanin nanoparticles were incubated with the compounds at room temperature for at least 2 h.
After >2 h incubation, the melanin–ligand complexes were mixed gently with a pipette to ensure melanin solution homogeneity and then transferred into capillaries (Monolith NT.115 Premium capillaries, #MOK025, NanoTemper Technologies GmbH, München, Germany). The samples were analyzed with a Monolith NT.115 pico device using MO.Control Software (both from NanoTemper Technologies GmbH, München, Germany) using nano-blue excitation, LED light adjusted to 60% excitation power, and infrared laser (MST power) set to high. […] The equation is based on the Langmuir binding isotherm. […] Equation (1) is a follows:(1) f(c)=Unbound+(Bound−Unbound)×c+c(target)+Kd−(c+c(target)+Kd)^2−4c×c(target)/2c(target) where f(c) is the fraction bound at a given ligand concentration c. Unbound is either the normalized fluorescence signal (Fnorm; MST mode) or raw fluorescence counts (initial fluorescence mode) of the target alone. Bound is either the normalized fluorescence signal or raw fluorescence counts (initial fluorescence mode) of the melanin–ligand complex. Kd is the dissociation constant or binding affinity, and c (target) is the final concentration of the target in the assay.
The normalized fluorescence is the ratio of relative fluorescence of the selected region after heating (hot region) and relative initial fluorescence before the heating (cold region, i.e., relative fluorescence values before the infrared laser was switched on). The MST traces displaying the changes in the relative fluorescence over time (heating) with the selected hot and cold regions are presented in the Supplementary Materials. In the case of ligand-induced changes in the initial raw fluorescence counts, the raw fluorescence counts prior to the heating were used (initial fluorescence mode). If the ligand-induced fluorescence changes were not observed, the normalized fluorescence signals (MST mode) were used to determine the Kd (for additional information, see the Supplementary Materials). […] Affinity Analysis Software.
Kd determination strategies. The Kd values were tested in both initial fluorescence and the above
described MST modes within the MO Affinity Analysis Software (Fig. S1, Table S1) and the Kd values

[4] = Prediction of unbound ligand fraction in vivo (human RPE-choroid); details: class by predicted fraction unbound in vivo, human RPE-choroid
Description: (§6) Unbound ligand fractions in vivo were calculated considering melanin binding as the only driver of nonspecific tissue binding.
(§7) Linear regression was used to describe the relationship between the Kd values obtained with the MST and the predicted unbound ligand fractions in human RPE-choroid obtained with calculations described above.
(§8) The Kd values obtained with MST consider only one class of binding site, whereas the Sips isotherm (the traditional binding assay) depicts different binding energies and binding sites. […] This approach is relevant to evaluate the melanin binding.

[5] = test system: melanin; assay: as above; details: human, human RPE-choroid (predicted), 34.8 mg/mL melanin
Description: as §6, §7, §8

[6] = Label-free microscale thermophoresis (MST) melanin binding assay; details: Table S2; 80% excitation power; read-out: Kd, initial fluorescence mode

With C[C@H]1COc2c(N3CCN(C)CC3)c(F)cc3c(=O)c(C(=O)O)cn1c23 [Levofloxacin] the “Target Capacity ± SE, traditional method (Sips isotherm)” value ([1]; Bmax multiplied with 0.5 mg/mL melanin concentration of the MST assay) was 36 ± 5.5 µM, the “n ± SE, traditional method (Sips isotherm)” value ([1]; heterogeneity index, 1 mg/mL melanin, PBS pH 7.4, 37 °C, 20 h) was 0.73 ± 0.02 and the “Bmax ± SE, traditional method (Sips isotherm)” value ([1]; maximum binding capacity, 1 mg/mL melanin, PBS pH 7.4, 37 °C, 20 h) was 72 ± 11 nmol/mg. It also gave a Kd ([1]; read-out: Kd ± SE, traditional method (Sips isotherm), 1 mg/mL melanin, PBS pH 7.4, 37 °C, 20 h) of 157 ± 56 µM, a fraction unbound at 20 h, 1 µM [2] of 0.28 and a Kd ([3]; 0.5 mg/mL (12.5 µM) melanin nanoparticles, PBS pH 7.4, room temperature, 68% confidence, initial fluorescence mode for compounds marked *, otherwise MST mode, read-out: Kd ± Kd Confidence (MST)) of 46.5 ± 40.1 µM. For the same molecule, the Kd ([3]; Table S2, normalized fluorescence, 60% excitation power, read-out: Kd, MST mode (Fnorm)) was 47 µM, the “Melanin binding class based on traditional assay” value [4] was “high” and the fraction unbound at 1 µM [5] was 0.0033. For the same molecule, the Kd [6] was 54 µM.
